Laboratory results taken from US8207329B2, “Synthesis of chlorins and phorbines with enhanced red spectral features” (North Carolina State University, priority 2005, dated 2012).
Several values for one entry are separate records, joined by “and”; a condition that tells them apart may be missing. Equal entries are not always repeated. Where two headings read alike, the source gives them in different places. One block for each molecule: values may come before it.

What was measured:
[1] = Stability on storage and handling; type: physicochemical; conditions: for decomposes almost completely in solution within: in solution (such as in ethyl acetate or chlorinated solvent) even at 0° C.; for powdered solid stored without decomposition: in the refrigerator
[2] = Absorption spectra obtained in toluene at room temperature; type: physicochemical; conditions: for Qy band / B/Qy band intensity ratio: toluene at room temperature; for Qy band: normalized at the B bands; for ΔνQy: redshift relative to the parent chlorin (ZnC or Zn—M^10)
Excerpt: (§1) Absorption Spectra. The spectral properties of interest in the chlorins include the position of the long-wavelength Qy transition, the intensity of the Qy transition, and the fluorescence quantum yield of the chlorin. The intensity of the Qy transition can be assessed by the measured molar absorption coefficient; however, comparisons of such values are somewhat unreliable given the experimental variability encountered upon handling small quantities of materials. A better comparison is achieved by examination of the ratio of the intensities of the B and Qy bands for a given compound (B/Qy ratio), which is determined simply by absorption spectroscopy without requiring determination of the molar absorption coefficient. For a wide variety of applications, bathochromic and hyperchromic shifts of the Qy band are desired (i.e., shifted to longer wavelength and intensified), thereby affording strong absorption in the deep-red region.
General. ^1H NMR (400 MHz) and ^13C NMR (75 MHz) spectra were collected at room temperature in CDCl3. Absorption spectra were obtained in toluene at room temperature. Chlorins were analyzed by laser desorption mass spectrometry (LD-MS) in the absence of a matrix. Fast atom bombardment mass spectrometry (FAB-MS) data are reported for the molecule ion or protonated molecule ion. Melting points are uncorrected. All commercially available materials were used as received. All palladium-coupling reactions were carried out using standard Schlenk-line techniques.
as §1, with “B. Absorption” for “Absorption”, “Spectroscopy.” for “Spectra.”, “increased” for “intensified), thereby affording strong absorption”, “intensity).” for “the deep-red region.”
General. ^1H NMR (400 MHz) and ^13C NMR (75 MHz) spectra were collected at room temperature in CDCl3 unless noted otherwise. Absorption spectra were obtained in toluene at room temperature. Chlorins were analyzed by laser desorption mass spectrometry (LD-MS) in the absence of a matrix. Metalation of free base chlorins was monitored by fluorescence spectroscopy. Melting points are uncorrected. All commercially available materials were used as received.

[3] = Fluorescence spectra and fluorescence quantum yields in toluene at room temperature; type: physicochemical
Method: Fluorescence Spectroscopy. The fluorescence spectra and fluorescence quantum yields reported herein were collected in toluene at room temperature. Measurements of fluorescence quantum yield (Φf) were carried out using chlorin Zn-11 (Φf=0.065) as a standard (Strachan, J.-P. et al., J. Org. Chem. 2000, 65, 3160-3172).

[4] = cited from earlier work; for Qy band / εQy: chlorophylls; for Qy band: FIG. 3, in diethyl ether at room temperature; for εQy: Strain and Svec (FIG. 3)
[5] = Table 1, in toluene at room temperature
[6] = figure legends (FIG. 1, 2, 4, 5)
[7] = Table 1, literature value, in diethyl ether
[8] = Table 3, Ref Jones et al., in diethyl ether
[9] = Table 3, zinc chlorins in toluene at room temperature

Molecule: CCCCB(CCCC)n1c(C(=O)c2ccc(C)cc2)ccc1C(c1ccc[nH]1)c1c(C)cc(C)cc1C (stereo not drawn) [Bu2B-3, 10-(Dibutylboryl)-5-mesityl-1-p-toluoyldipyrromethane]
stability (in words) [1]: decomposes partially at room temperature

Molecule: CC(=O)c1cc2[n-]c1cc1nc(cc3ccc([n-]3)c(-c3ccc(C)cc3)c3nc(c2-c2c(C)cc(C)cc2C)C=C3)C(C)(C)C1.[Cu+2] [Cu-8, Cu(II)-13-Acetyl-17,18-dihydro-10-mesityl-18,18-dimethyl-5-p-tolylporphyrin]
B/Qy intensity ratio [2, 5]: 3.1 | Log ε (M^−1cm^−1) (Qy band) [2, 5]: 4.69 M^−1cm^−1 | λmax (nm), B [2, 5]: 420 nm | λmax (nm), Qy [2, 5]: 631 nm

Molecule: Cc1ccc(C2=c3ccc4[n]3[Zn][n]3c(cc(Br)c3C=C3CC(C)(C)C(=N3)C=4)C(c3c(C)cc(C)cc3C)=C3C=CC2=N3)cc1 [Zn-6, Zn(II)-13-Bromo-17,18-dihydro-10-mesityl-18,18-dimethyl-5-p-tolylporphyrin]
B/Qy intensity ratio [2, 5]: 4.0 | Log ε (M^−1cm^−1) (Qy band) [2, 5]: 4.65 M^−1cm^−1 | λmax (nm), B [2, 5]: 414 nm | λmax (nm), Qy [2, 5]: 616 nm

Molecule: CC(=O)c1cc2[n]3c1=CC1=NC(=Cc4ccc([n]4[Zn]3)C(c3ccc(C)cc3)=C3C=CC(=N3)C=2c2c(C)cc(C)cc2C)C(C)(C)C1 [Zn-8, Zn(II)-13-Acetyl-17,18-dihydro-10-mesityl-18,18-dimethyl-5-p-tolylporphyrin]
redshift of the Qy band ([2]; Example 1, versus benchmark chlorin lacking the 13-substituent (Zn-11 or 11), toluene): 27 nm | B/Qy intensity ratio [2, 5]: 2.9 | Log ε (M^−1cm^−1) (Qy band) [2, 5]: 4.75 M^−1cm^−1 | λmax (nm), B [2, 5]: 424 nm | λmax (nm), Qy [2, 5]: 635 nm | Qy band [2, 6]: 632 nm | strong / dominant Qy(0,0) fluorescence band [3]: around 641 nm | weak emission feature / broad weak band [3]: 670-720 nm | fluorescence quantum yield (Φf) ([3]; standard Zn-11 (Φf=0.065)): 0.24

Molecule: C=Cc1c(C)c2cc3nc(c4c5[n-]c(cc6nc(cc1[n-]2)C(C=O)=C6CC)c(C)c5C(=O)[C@@H]4C(=O)OC)[C@@H](CCC(=O)OC/C=C(\C)CCC[C@H](C)CCC[C@H](C)CCCC(C)C)[C@@H]3C.[Zn+2] [Zn-chlorophyll b]
B/Qy intensity ratio [4, 7]: 2.9 | λmax (nm), B [4, 7]: 446 nm | λmax (nm), Qy [4, 7]: 634 nm | B/Qy ratio [4, 8]: 2.9 | λmax (nm), B [4, 8]: 446 nm | λmax (nm), Qy [4, 8]: 634 nm

Molecule: CC(=O)c1cc2[n]3c1C=C1CC(C)(C)C(=N1)C=c1cc(C#C[Si](C(C)C)(C(C)C)C(C)C)c([n]1[Zn]3)=CC1=NC(=C2)C=C1 [ZnC-E^3A^13]
ΔνQy ([2]; Table 3, toluene): 1320 cm⁻¹ | B/Qy ratio [2, 9]: 1.2 | λmax (nm), B [2, 9]: 428 nm | λmax (nm), Qy [2, 9]: 655 nm | Qy band [2, 6]: 655 nm | B/Qy band intensity ratio ([2]; figure legends (FIG. 4, 5)): 1.2

Molecule: CC(C)[Si](C#Cc1cc2[n]3c1C=C1CC(C)(C)C(=N1)C=c1cc(C#C[Si](C(C)C)(C(C)C)C(C)C)c([n]1[Zn]3)=CC1=NC(=C2)C=C1)(C(C)C)C(C)C [ZnC-E^3E^13]
ΔνQy ([2]; Table 3, toluene): 1080 cm⁻¹ | B/Qy ratio [2, 9]: 1.4 | λmax (nm), B [2, 9]: 421 nm | λmax (nm), Qy [2, 9]: 645 nm | Qy band ([2]; figure legends (FIG. 4, 5)): 645

Molecule: CC(=O)c1cc2[n]3c1C=C1CC(C)(C)C(=N1)C=c1cc(C#C[Si](C(C)C)(C(C)C)C(C)C)c([n]1[Zn]3)=CC1=NC(=C2c2c(C)cc(C)cc2C)C=C1 [ZnC-E^3M^10A^13, Zn(II)-13-Acetyl-3-[2-(triisopropylsilyl)ethynyl]-17,18-dihydro-10-mesityl-18,18-dimethylporphyrin]
ΔνQy ([2]; Table 3, toluene): 1160 cm⁻¹ | B/Qy ratio [2, 9]: 1.5 | λmax (nm), B [2, 9]: 428 nm | λmax (nm), Qy [2, 9]: 652 nm | Qy band ([2]; figure legend (FIG. 4)): 652 | B/Qy band intensity ratio ([2]; figure legends (FIG. 4, 5)): 1.5

Molecule: C=Cc1c(C)c2cc3nc(c4c5[n-]c(cc6nc(cc1[n-]2)C(C)=C6CC)c(C)c5C(=O)[C@@H]4C(=O)OC)[C@@H](CCC(=O)OC/C=C(\C)CCC[C@H](C)CCC[C@H](C)CCCC(C)C)[C@@H]3C.[Mg+2] [chlorophyll a]
B/Qy intensity ratio [4, 7]: 1.3 | λmax (nm), B [4, 7]: 430 nm | λmax (nm), Qy [4, 7]: 662 nm | B band ([4]; chlorophyll a, text (FIG. 3)): 430 nm | Qy band [4]: 662 nm | εQy [4]: 86,300 M^−1cm^−1

Molecule: C=Cc1c(C)c2cc3nc(c4c5[n-]c(cc6nc(cc1[n-]2)C(C=O)=C6CC)c(C)c5C(=O)[C@@H]4C(=O)OC)[C@@H](CCC(=O)OC/C=C(\C)CCC[C@H](C)CCC[C@H](C)CCCC(C)C)[C@@H]3C.[Mg+2] [chlorophyll b]
Qy band [4]: 642 nm and 644 nm | εQy [4]: 56,100 M^−1cm^−1

Molecule: pheophytin a
B/Qy intensity ratio [4, 7]: 2.1 | Log ε (M^−1cm^−1) (Qy band) [4, 7]: 5.12 | λmax (nm), B [4, 7]: 408 nm | λmax (nm), Qy [4, 7]: 667 nm

Further lines, results first:

ΔνQy ([2]; Table 3, toluene): 1020 cm⁻¹ | B/Qy ratio [2, 9]: 1.6 | λmax (nm), Qy [2, 9]: 646 nm | Qy band [2, 6]: 646 nm
Molecule: Cc1cc(C)c(C2=c3cc(C#C[Si](C(C)C)(C(C)C)C(C)C)c4[n]3[Zn][n]3c(cc(C#C[Si](C(C)C)(C(C)C)C(C)C)c3C=C3C=CC2=N3)C=C2N=C(C=4)CC2(C)C)c(C)c1 [ZnC-E^3M^10E^13, Zn(II)-3,13-Bis[2-(triisopropylsilyl)ethynyl]-17,18-dihydro-10-mesityl-18,18-dimethylporphyrin]

ΔνQy ([2]; Table 3, toluene): 680 cm⁻¹ | B/Qy ratio [2, 9]: 2.2 | λmax (nm), B [2, 9]: 418 nm | λmax (nm), Qy [2, 9]: 632 nm | Qy band ([2]; figure legends (FIG. 4, 5)): 632
Molecule: CC(=O)c1cc2[n]3c1C=C1CC(C)(C)C(=N1)C=c1ccc([n]1[Zn]3)=CC1=NC(=C2c2c(C)cc(C)cc2C)C=C1 [ZnC-M^10A^13, Zn(II)-13-Acetyl-17,18-dihydro-10-mesityl-18,18-dimethylporphyrin]

ΔνQy ([2]; Table 3, toluene): 530 cm⁻¹ | B/Qy ratio [2, 9]: 2.3 | λmax (nm), B [2, 9]: 412 nm | λmax (nm), Qy [2, 9]: 626 nm
Molecule: Cc1cc(C)c(C2=c3cc(C#C[Si](C(C)C)(C(C)C)C(C)C)c4[n]3[Zn][n]3c(ccc3C=C3N=C(C=4)CC3(C)C)C=C3C=CC2=N3)c(C)c1 [ZnC-M^10E^13, Zn(II)-13-[2-(Triisopropylsilyl)ethynyl]-17,18-dihydro-10-mesityl-18,18-dimethylporphyrin]

ΔνQy ([2]; Table 3, toluene): 400 cm⁻¹ | B/Qy ratio [2, 9]: 3.3 | λmax (nm), B [2, 9]: 413 nm | λmax (nm), Qy [2, 9]: 621 nm
Molecule: C=Cc1cc2[n]3c1C=C1C=CC(=N1)C(c1c(C)cc(C)cc1C)=c1ccc([n]1[Zn]3)=CC1=NC(=C2)C(C)(C)C1 [ZnC-V^3M^10, Zn(II)-17,18-Dihydro-10-mesityl-18,18-dimethyl-3-vinylporphyrin]

decomposes almost completely in solution within [1]: 8 to 10 h | decomposed almost completely in solution within ([1]; purified compound in solution even at 0° C.): 8 to 10 h | powdered solid stable on storage without decomposition ([1]; storage at −10° C.): 1 to 2 days
Molecule: Cc1ccc(C(=O)c2ccc(C(c3cc(Br)c(Br)[nH]3)c3c(C)cc(C)cc3C)[nH]2)cc1 (stereo not drawn) [compound 4, 8,9-Dibromo-5-mesityl-1-(4-methylbenzoyl)dipyrromethane]

powdered solid stored without decomposition [1]: 2-3 weeks
Molecule: O=Cc1ccc(Cc2cc(Br)c(Br)[nH]2)[nH]1 [compound 14, 8,9-Dibromo-1-formyldipyrromethane]

decomposes almost completely in solution within [1]: 18 to 20 h | powdered solid stored without decomposition [1]: 5 to 7 days
Molecule: Cc1cc(C)c(C(c2ccc(C=O)[nH]2)c2cc(Br)c(Br)[nH]2)c(C)c1 (stereo not drawn) [compound 16, 8,9-Dibromo-1-formyl-5-mesityldipyrromethane]

colour change from yellow to black indicating partial decomposition ([1]; neat or in solution, at room temperature): 1 to 2 days
Molecule: CC(=O)CC(C)(C)C(Cc1ccc[nH]1)[N+](=O)[O-] (stereo not drawn) [compound 19, 4,4-Dimethyl-5-nitro-6-(1H-pyrrol-2-yl)hexan-2-one]

ΔνQy ([2]; Table 3, toluene): 550 cm⁻¹ | B/Qy ratio [2, 9]: 2.3 | λmax (nm), B [2, 9]: 416 nm | λmax (nm), Qy [2, 9]: 627 nm
Molecule: Zn(II)-3-(2-(Triisopropylsilyl)ethynyl)-17,18-dihydro-10-mesityl-18,18-dimethylporphyrin [ZnC-E^3M^10]
